According to patent EP4603481A1, “PREPARATION AND USE OF CATIONIC LIPID MATERIAL” (Nanjing Geneleap Biotechnology Co., Ltd., priority 2022, dated 2024):
Entries after “also recorded” stand apart in the source; their conditions may differ.

Assays:
Balb/c mice [1] = assay: Animal transfection of lipid nanoparticles, in vivo imaging after 12 h; conditions: for Multiple of local photon intensity in the supine position relative to MC3 / Multiple of photon intensity of the viscera in the supine position relative to MC3: Table 8, 0.1 mg/kg FFluc mRNA, 12 h; for Multiple of local photon intensity in the supine position relative to MC3: injection site; for Multiple of photon intensity of the viscera in the supine position relative to MC3: viscera (liver); for toxic and side effect on the liver: inferred from expression in the liver 12 h after administration
Description: (§1) Balb/c mice (available from Vital River Laboratory Animal Technology Co., Ltd., male, 6-8 weeks old, 20-24 g) were randomized into groups, 5 mice per group. The mice were injected the prepared lipid nanoparticles into the leg muscle at a dose of 0.1 mg/kg (calculated as to FFluc mRNA (SEQ ID NO.1)) and observed by in vivo imaging after 12 h. The injection sites on the bellies and legs of Balb/c mice were depilated, and after anesthesia, the animals were injected D-luciferin potassium salt intraperitoneally, and were observed and photographed in an IVIS living body imager (PerkinElmer, Series III), wherein the observation time of living body images was within 15 min after the injection of substrate. Table 7. Results of animal transfection efficiency of lipid nanoparticles made from different cationic lipids

Balb/c mice [2] = assay: Animal transfection of lipid nanoparticles, in vivo imaging after 24 h; conditions: leg muscle injection, 0.1 mg/kg FFluc mRNA; for Multiple of total photon intensity in the supine position relative to MC3: Table 5, Balb/c mice; for Multiple of local photon intensity in the supine position relative to MC3: Table 5, injection site
Description: as §1, with “24” for “12”, “5.” for “7.”

Structure (SMILES): CCCCCCCCC(CCCCCCCC)OC(=O)CCCCC(=O)OCC(CN(C)CCN1CCCC1)OC(=O)CCCCC(=O)OC(CCCCCCCC)CCCCCCCC (stereo not drawn) [Compound 18]
- Multiple of local photon intensity in the supine position relative to MC3 (Balb/c mice [1]; 0.1 mg/kg): equivalent; also recorded: not weaker than that of MC3 LNP
- Multiple of photon intensity of the viscera in the supine position relative to MC3 (Balb/c mice [1]): almost have no expression in the liver
- toxic and side effect on the liver (Balb/c mice [1]): completely avoid liver toxicity; also recorded: completely avoid the toxic and side effect on the liver

Structure (SMILES): CCCCCCCCC(CCCCCC)C(=O)OCC(CN(C)CCN1CCCC1)OC(=O)C(CCCCCC)CCCCCCCC (stereo not drawn) [Compound 1]
- Multiple of local photon intensity in the supine position relative to MC3 (Balb/c mice [1]): not weaker than that of MC3 LNP
- Multiple of total photon intensity in the supine position relative to MC3 (Balb/c mice [2]): 1.668
- Multiple of local photon intensity in the supine position relative to MC3 (Balb/c mice [2]): significantly higher

Structure (SMILES): CCCCCCCCC(CCCCCCCC)OC(=O)CCCCC(=O)OCC(CN(C)CCN1CCN(C)CC1)OC(=O)CCCCC(=O)OC(CCCCCCCC)CCCCCCCC (stereo not drawn) [Compound 17]
- Multiple of local photon intensity in the supine position relative to MC3 (Balb/c mice [1]; 0.1 mg/kg): equivalent; also recorded: not weaker than that of MC3 LNP
- Multiple of photon intensity of the viscera in the supine position relative to MC3 (Balb/c mice [1]): almost have no expression in the liver
- toxic and side effect on the liver (Balb/c mice [1]): completely avoid liver toxicity; also recorded: completely avoid the toxic and side effect on the liver

Structure (SMILES): CCCCCCCCC(CCCCCC)C(=O)OCC(CN(C)CCN1CCN(C)CC1)OC(=O)C(CCCCCC)CCCCCCCC (stereo not drawn) [Compound 2]
- Multiple of local photon intensity in the supine position relative to MC3 (Balb/c mice [1]): not weaker than that of MC3 LNP
- Multiple of total photon intensity in the supine position relative to MC3 (Balb/c mice [2]): equivalent
- Multiple of local photon intensity in the supine position relative to MC3 (Balb/c mice [2]): significantly higher
